According to publication PMC12392461, “Beyond Estrogenicity: A Comparative Assessment of Bisphenol A and Its Alternatives in In Vitro Assays Questions Safety of Replacements” (Environmental Science & Technology, 2025):
Like-named read-outs stand apart in the source and are kept apart here.

Assays:
[1] = target: T1, Peroxisome proliferator-activated receptor γ (Homo sapiens, UniProt P37231); assay: cell-based; settings: for EC10, linear: linear model; for logEC10: log-logistic model
T1 sequence (P37231 238-505 limits assumed): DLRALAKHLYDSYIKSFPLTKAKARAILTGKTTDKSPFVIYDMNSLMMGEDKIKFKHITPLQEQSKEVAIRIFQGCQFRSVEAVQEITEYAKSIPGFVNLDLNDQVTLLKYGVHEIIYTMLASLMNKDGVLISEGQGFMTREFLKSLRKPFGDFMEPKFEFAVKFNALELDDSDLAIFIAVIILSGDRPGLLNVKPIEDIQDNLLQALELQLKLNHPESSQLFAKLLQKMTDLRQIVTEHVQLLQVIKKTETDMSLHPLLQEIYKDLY
Method in brief: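 ERα-UAS-bla GripTite and PPARγ-UAS-bla β-lactamase reporter cells were seeded and held 24 h at 37 °C, 5% CO₂ before dosing. EC10 values used only concentrations below the IC10 from IncuCyte confluency. Emax% is the log-logistic curve maximum relative to the reference chemical's maximum.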

HEK293H (PPARγ) = settings: for IC10, linear transformed / IC10, linear / logIC10: PPARγ bioassay cytotoxicity, dosing range all; for IC10, linear: linear model; for logIC10: log-logistic model; for IC10, HEK293, PPARγ: cytotoxicity, HEK293 (PPARγ assay cells)
Method in brief: (§1)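 For each reporter cell line, loss of confluency over 24 h of exposure to BPA or its alternatives gave the cytotoxicity curve. Dosing used 11 concentrations in duplicate, with solvent kept under 1% methanol. Reporter responses above the IC10 were excluded when EC10 or ECIR1.5 was fitted.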

HEK293T (ERα) = settings: for IC10, HEK293, ERα: HEK293 (ERα assay cells)
Method in brief: as §1

H4IIe (AhR CALUX) = settings: for IC10, linear transformed / IC10, linear / logIC10: Bioassay AhR, dosing range all; for IC10, linear transformed / IC10, linear / logIC10 / IC10, H4IIe, AhR: cytotoxicity; for IC10, linear: linear model fit; for logIC10: log-logistic model fit; for Toxic ratio (TR) TRAhR: against baseline cytotoxicity; for IC10, H4IIe, AhR: H4IIe (AhR assay cells)
Method in brief: as §1

MCF7 (ARE/MMP) = settings: for IC10, linear transformed / IC10, linear / logIC10: dosing range all; for IC10, MCF7, ARE: MCF7, ARE readout; for IC10, MCF7, MMP: MCF7, MMP readout
Method in brief: as §1

[2] = PPARγ bioassay, dosing range all
[3] = Bioassay ARE, cytotoxicity, linear model fit
[4] = Bioassay ARE, cytotoxicity, log-logistic model fit
[5] = MMP bioassay cytotoxicity, linear model
[6] = MMP bioassay cytotoxicity, log-logistic model

Row | Compound | EC10, linear [1, 2] | logEC10 [1, 2] | IC10, linear transformed (HEK293H (PPARγ)) | IC10, linear (HEK293H (PPARγ)) | logIC10 (HEK293H (PPARγ)) | IC10, HEK293, PPARγ (HEK293H (PPARγ)) [µM] | IC10, HEK293, ERα (HEK293T (ERα); cytotoxicity) [µM] | IC10, linear transformed (H4IIe (AhR CALUX)) | IC10, linear (H4IIe (AhR CALUX)) | logIC10 (H4IIe (AhR CALUX)) | Toxic ratio (TR) TRAhR (H4IIe (AhR CALUX)) | IC10, H4IIe, AhR (H4IIe (AhR CALUX)) [µM] | IC10, linear transformed (MCF7 (ARE/MMP); Bioassay ARE, cytotoxicity) | IC10, linear (MCF7 (ARE/MMP); [3]) | logIC10 (MCF7 (ARE/MMP); [4]) | IC10, linear transformed (MCF7 (ARE/MMP); MMP bioassay cytotoxicity) | IC10, linear (MCF7 (ARE/MMP); [5]) | logIC10 (MCF7 (ARE/MMP); [6]) | IC10, MCF7, ARE (MCF7 (ARE/MMP); cytotoxicity) [µM] | IC10, MCF7, MMP (MCF7 (ARE/MMP); cytotoxicity) [µM] | also measured
1 | CC(C)c1cc(C(C)(C)c2ccc(O)c(C(C)C)c2)ccc1O [BPG, 2,2-Bis(4-hydroxy-3-isopropylphenyl)propane] | 1.61E-07 | -6.93 | 3.91E-06 | 5.23E-06 | -5.19 | 6.46 | 6.95 | 2.43E-05 | 2.10E-05 | -4.61 | 0.25 | 21 | 6.03E-06 | 7.17E-06 | -5.22 | 8.72E-06 | 8.88E-06 | -5.06 | 6.03 | 8.72 | EC10, PPARγ (M) ([1]; 10% of maximum effect of rosiglitazone): 1.17 × 10^–7 M; EC10, linear transformed [1, 2]: 1.17E-07; SR-ScorePPARγ ([1]; SR-Score, sigma k=1, x=5): 1.00; Specificity ratio (SRbaseline) SRPPARγ ([1]; against baseline cytotoxicity): 12.28; Specificity ratio (SRcytotoxicity) SRPPARγ ([1]; against experimental cytotoxicity): 54.95; EC10, PPARγ ([1]; effect): 0.117 µM; log(1/EC10) PPARγ ([1]; input of the ToxPi score, values up to 1.00): 0.98; Emax ([1]; read-out: Emax%PPARγ): 22%; Toxic ratio (TR) TRPPARγ (HEK293H (PPARγ); against baseline cytotoxicity): 0.22; IC10, linear transformed (HEK293T (ERα); Bioassay ERα, cytotoxicity, dosing range all): 5.99E-06; IC10, linear (HEK293T (ERα); Bioassay ERα, cytotoxicity, dosing range all, linear model fit): no cytotoxicity; logIC10 (HEK293T (ERα); Bioassay ERα, cytotoxicity, dosing range all, log-logistic model fit): -5.16; Toxic ratio (TR) TRERα (HEK293T (ERα); against baseline cytotoxicity): 0.21; Toxic ratio (TR) TRARE (MCF7 (ARE/MMP); against baseline cytotoxicity, ARE readout): 0.88; Toxic ratio (TR) TRMMP (MCF7 (ARE/MMP); against baseline cytotoxicity, MMP readout): 0.61
2 | Oc1ccc(C(c2ccc(O)cc2)(C(F)(F)F)C(F)(F)F)cc1 [BPAF, 4,4'-(1,1,1,3,3,3-Hexafluoropropane-2,2-diyl)diphenol] | no effect | no effect | 4.34E-06 | 1.10E-05 | -5.04 | 9.12 | 9.47 | 3.99E-05 | 3.11E-05 | -4.40 |  | 31.1 | 1.84E-05 | 1.82E-05 | -4.73 | 2.72E-05 | 2.87E-05 | -4.57 | 18.4 | 27.2 | IC10, linear transformed (HEK293T (ERα); Bioassay ERα, cytotoxicity, dosing range high): 5.56E-06; IC10, linear (HEK293T (ERα); Bioassay ERα, cytotoxicity, dosing range high, linear model fit): no cytotoxicity; logIC10 (HEK293T (ERα); Bioassay ERα, cytotoxicity, dosing range high, log-logistic model fit): -5.02; IC10, linear (HEK293T (ERα); Bioassay ERα, cytotoxicity, dosing range low, linear model fit): no cytotoxicity; logIC10 (HEK293T (ERα); Bioassay ERα, cytotoxicity, dosing range low, log-logistic model fit): no cytotoxicity
3 | CC1(C)C(O)C(C)(C)C1O (racemic) [r-TMCD, 2,2,4,4-Tetramethyl-1,3-cyclobutanediol (racemate)] | no effect | no effect | 6.71E-03 | no cytotoxicity | no cytotoxicity |  |  | 9.14E-03 | 8.29E-03 | -2.04 | 0.12 | 8290 |  | no cytotoxicity | no cytotoxicity |  | no cytotoxicity | no cytotoxicity |  |  | IC10, linear (HEK293T (ERα); ERα bioassay cytotoxicity, dosing range all, linear model): no cytotoxicity; logIC10 (HEK293T (ERα); ERα bioassay cytotoxicity, dosing range all, log-logistic model): no cytotoxicity
